Source: patent publication US5441948A, “1,3,4-benzotraizepin-5(4H)-one derivatives and process for the preparation thereof” (priority 1992, dated 1995)

Assays:
[1] = tested on: vasopressin-induced ST elevation; test: Inhibitory effect on the vasopressin-induced ST elevation in anaesthetized rats; assay type: in vivo, CFY male rats; conditions: vasopressin 3 IE/kg i.v.
Description: II. Inhibitory effect on the vasopressin-induced ST elevation in anaesthetized rats
The studies were performed in 200-250 g CFY male rats. Animals were anaesthetized with intraperitoneally administered urethane ([…]), then subjected to ECG, using limb leads. Coronary spasm, reflected by elevated ST deflection in the ECG recordings, was induced by treating the rats with 3 IE/kg of vasopressin intravenously. […] Methods. 5, 325-336 (1981)].
Dose of compounds of the invention: 1 mg/kg, i.v. except where appears

[2] = tested on: isolated canine Purkinje fibres; test: Intracellular electrophysiology, action potential duration (50% and 90% repolarization) in isolated canine Purkinje fibres; assay type: cell-based, canine (mongrel dogs)
Description: I. Intracellular electrophysiological studies on isolated canine Purkinje fibres: study of the characteristics and the duration of the action potential
Mongrel dogs of both sexes, weighing 8-22 kg, were anaesthetized with intravenously administered sodium pentobarbital, 30 mg/kg (Nembutal®).The superficial Purkinje fibres were excised from the heart and placed in plastic organ bath containing Tyrode's solution ([…] of Na^+, 4.0 mM of K^+, 133.3 mM of Cl^-, 2.0 mM of Ca^2+, 22.0 mM of HCO3 -, 0.9 mM of H2 PO4^+, 0.7 mM of Mg^2+, 5.0 mM of glucose) The perfusate (Tyrode's solution) was gassed with a mixture of 95% of O^2 and 5% of CO2. Temperature of the organ bath was 37.0°±0.5° C. pH=7.3±0.5. Purkinje fibres were incubated for 1-2 hours in order to avoid spontaneous changes in the duration of action potential, to be observed often for a short period after the preparation completed. Conventional glass microelectrode method was used to measure intracellular action potentials. The electrodes were filled with 3M KCl solution, resistance was 5-15 Mohm. Microelectrodes were connected to high input-resistance capacity-neutralizing amplifier through a Ag-AgCl connection. Another electrode was placed in the organ bath as a reference electrode. Maximum rate of depolarization (Vmax) was measured with an electronic differentiating unit. The intracellular pulses were visualized on a two-channel oscilloscope by a microcomputer in on-line mode. The following parameters were measured: resting potential, action potential amplitude, 50% and 90% repolarizations, maximum rate of depolarization. Preparations were stimulated through silver electrodes insulated with PTFE. Parameters of stimuli were rectangular pulses of 1 ms duration with an intensity of two times the threshold. The basal stimulation periods were changed between 200 and 1000 msec. [Varre et al., J. Cardiovasc. Pharmacol. 11, 251 (1988)].
The applied dose of the compounds according to the invention is 10 mg/L.
Concentration of Pinacidil: 1 mg/L
Concentration of Nicorandil: 5 mg/L
APD: action potential duration

[3] = result in words, characteristic of drugs with merely K+-channel-activating activity; cited from earlier work
[4] = 5.0 mg/kg i.v. pretreatment (*)

Structure (SMILES)	Inhibition (%) of vasopressin-induced ST elevation ([1]; 1 mg/kg, i.v. pretreatment) [%]	ADD90 Change (%) ([2]; 10 mg/L)	ARD50 Change (%) ([2]; 10 mg/L)	ADD90 after treatment ([2]; 10 mg/L) [ms]	ARD50 after treatment ([2]; 10 mg/L) [ms]	also measured
O=C(NCCO[N+](=O)[O-])c1cccnc1 [Nicorandil, reference compound]	-12					Inhibition (%) of vasopressin-induced ST elevation [1, 4]: -60%; ADD90 Change (%) ([2]; Nicorandil 5 mg/L): -32%; ARD50 Change (%) ([2]; Nicorandil 5 mg/L): -41%; ADD90 after treatment ([2]; Nicorandil 5 mg/L): 179 ms; ARD50 after treatment ([2]; Nicorandil 5 mg/L): 107 ms
CN1C(=O)c2ccccc2N=C(NCc2cccnc2)N1CCCN1CCN(c2ccccc2)CC1 [Example 20, 2-(3-pyridylmethylamino)-3-[3-(4-phenyl-1-piperazinyl)-1-propyl]-4-methyl-3,4-dihydro-1,3,4-benzotriazepin-5 (4H)-one]		-5	-42	227	79	
CC(NC1=Nc2ccccc2C(=O)N(C)N1)C(C)(C)C (stereo not drawn) [Example 18, 2-(3,3-dimethyl-2-butylamino)-4-methyl-3,4-dihydro-1,3,4-benzotriazepin-5(4H)-one]		-15	-29	213	111	
CC(NC(N)=NC1=Nc2ccccc2C(=O)N(C)N1)C(C)(C)C (stereo not drawn) [Example 17, 2-[amino-(3,3-dimethyl-2-butylamino)-methyleneamino]-4-methyl-3,4-dihydro-1,3,4-benzotriazepin-5(4H)-one]	-68	-13	-42	221	91	
COc1cc(C(=O)OCCCN2C(N=C(N)N3CCCNCC3)=Nc3ccccc3C(=O)N2C)cc(OC)c1OC [Example 19, 2-[amino-(1-homopiperazinyl)-methyleneamino]-3-[3-(3,4,5-trimethoxybenzoyloxy)-1-propyl]-4-methyl-3,4-dihydro-1,3,4-benzotriazepin-5(4H)-one]	-59	-9	-25	237	121	
CN1NC(N=C(N)N2CCCCC2)=Nc2ccccc2C1=O [Example 4, 2-[Amino-(1-piperidinyl)-methyleneamino]-4-methyl-3,4-dihydro-4H-1,3,4-benzotriazepin-5-one]		-10	-33	226	113	Inhibition (%) of vasopressin-induced ST elevation [1, 4]: -36%
CN1C(=O)c2ccccc2N=C(N=C(N)N2CCCCC2)N1Cc1ccccn1 [Example 22, 2-[amino-(1-piperidinyl)-methyleneamino]-3-(2-pyridylmethyl)-4-methyl-3,4-dihydro-1,3,4-benzotriazepin-5(4H)-one]	-59	-10	-39	219	97	
CC(N/C(=N\C#N)Nc1ccncc1)C(C)(C)C (stereo not drawn) [Pinacidil, reference compound]						unpleasant side-effects [3]: tachycardia and the so-called "first dose effect"; ADD90 Change (%) ([2]; Pinacidil 1 mg/L): -45%; ARD50 Change (%) ([2]; Pinacidil 1 mg/L): -61%; ADD90 after treatment ([2]; Pinacidil 1 mg/L): 141 ms; ARD50 after treatment ([2]; Pinacidil 1 mg/L): 71 ms
